Assay results taken from patent EP4707280A1, “1,4-CINEOLE DERIVATIVE AND INTERMEDIATE THEREOF, HERBICIDE CONTAINING SAID DERIVATIVE AS ACTIVE INGREDIENT, METHOD FOR USING HERBICIDE, AND METHOD FOR PREPARING AGROCHEMICAL COMPOSITION” (HOKKO CHEMICAL INDUSTRY CO., LTD., priority 2023, dated 2024).

Assays:
Type in all cases: in vivo
Digitaria ciliaris = experiment: Test Example 8: herbicidal effect test by stem and leaf treatment in upland field (low dose); conditions: Digitaria ciliaris; 7.5 g per 10 ares; sprayed seven days after sowing, upland soil; 14 days after application; read-out: weed inhibition rate
Echinochloa crus-galli [1] = experiment: as above; conditions: Echinochloa crus-galli; 7.5 g per 10 ares; sprayed seven days after sowing, upland soil; 14 days after application; read-out: weed inhibition rate
Monochoria vaginalis [2] = experiment: Test Example 1: herbicidal effect test by soil application in paddy rice; conditions: Pontederia vaginalis, soil, 336 h; 120 g active ingredient per 10 ares; applied immediately after sowing, flooded pots; 14 days after application; read-out: weed inhibition rate
In short: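 Pre-emergence test in puddled, flooded paddy soil (about 3 cm water), 30 seeds per weed sown at 0–1 cm depth in a glass greenhouse. Emulsifiable concentrate diluted in water and dropped onto the pots straight after sowing at 120 g a.i. per 10 ares. Weed inhibition (%) scored at 14 days, in duplicate.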

Scirpus juncoides [3] = experiment: as above; conditions: Schoenoplectiella juncoides, soil, 336 h; 120 g active ingredient per 10 ares; applied immediately after sowing, flooded pots; 14 days after application; read-out: weed inhibition rate
In short: (§1)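 Paddy soil in Wagner pots (1/10,000 acre), fertilized and puddled; 30 seeds per species sown at 0–1 cm, flooded to ~3 cm, greenhouse. Water-diluted emulsifiable concentrate dropped onto flooded pots right after sowing at 120 g active ingredient per 10 ares.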

[4] = test system: Echinochloa crus-galli var. formosensis; experiment: as above; conditions: Echinochloa crus-galli, soil, 336 h; 120 g active ingredient per 10 ares; applied immediately after sowing, flooded pots; 14 days after application; read-out: weed inhibition rate
In short: as §1

[5] = test system: Echinochloa crus-galli var. formosensis; experiment: Test Example 5: herbicidal effect test by soil application in paddy rice (low dose); conditions: Echinochloa crus-galli, soil, 336 h; 7.5 g per 10 ares; applied immediately after sowing, flooded pots; 14 days after application; read-out: weed inhibition rate
In short: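 Paddy soil in Wagner pots was fertilized (N:P:K 16:16:16), puddled, sown with 30 seeds per weed species at 0–1 cm, then flooded to ~3 cm in a glass greenhouse. Emulsifiable concentrate diluted in water was dropper-applied into floodwater immediately, at 7.5 g active ingredient per 10 ares; duplicates, scored at 14 days.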

Scirpus juncoides [6] = experiment: Test Example 2: herbicidal effect test by application during growth period of paddy rice; conditions: Schoenoplectiella juncoides; 120 g per 10 ares; applied seven days after sowing, flooded pots; 14 days after application; read-out: weed inhibition rate
In short: (§2)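 Paddy soil in Wagner pots was puddled with N:P:K 16:16:16 fertilizer, sown with 30 weed seeds per species at 0–1 cm and flooded to about 3 cm. Seven days after sowing, a water-diluted emulsifiable concentrate was dropped onto the water at 120 g active ingredient per 10 ares. Weed inhibition (%) was scored at 14 days, in duplicate.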

[7] = test system: Echinochloa crus-galli var. formosensis; experiment: as above; conditions: Echinochloa crus-galli; 120 g per 10 ares; applied seven days after sowing, flooded pots; 14 days after application; read-out: weed inhibition rate
In short: as §2

Monochoria vaginalis [8] = experiment: as above; conditions: Pontederia vaginalis; 120 g per 10 ares; applied seven days after sowing, flooded pots; 14 days after application; read-out: weed inhibition rate
In short: as §2

Echinochloa crus-galli [9] = experiment: Test Example 4: herbicidal effect test by stem and leaf treatment in upland field; conditions: Echinochloa crus-galli; 120 g per 10 ares; sprayed seven days after sowing, upland soil; 14 days after application; read-out: weed inhibition rate
Scirpus juncoides [10] = experiment: Test Example 5: herbicidal effect test by soil application in paddy rice (low dose); conditions: Schoenoplectiella juncoides, 336 h, 7.5 g per 10 ares, applied immediately after sowing, flooded pots, 14 days after application, read-out: weed inhibition rate
Description: The present test was conducted in duplicate for each chemical concentration group, and the weed inhibition rate (%) was determined 14 days after chemical application using the following formula (Math. 1). [formula]
Wagner pots with an area of […] were filled with paddy soil, followed by addition of water and incorporation of chemical fertilizer (N:P:K = 16:16:16), after which puddling was performed. After that, seeds of Echinochloa crus-galli var. formosensis, broad-leaved weeds (Monochoria vaginalis), and Scirpus juncoides were sown at a depth of 0 cm to 1 cm, 30 seeds each. Immediately after sowing, the pots were flooded and a water depth of approximately 3 cm was maintained. Subsequent management was conducted in a glass greenhouse. Immediately thereafter, an emulsifiable concentrate prepared according to Formulation Example 5 using the compound shown below was diluted with water, and a specified amount of the diluted solution was applied by dropper. The amount of the active ingredient to be applied was equivalent to 7.5 g per 10 ares.
The present test was conducted in duplicate for each chemical concentration group, and the herbicidal effect was evaluated 14 days after chemical application using the same criteria as in Test Example 1.

CC(C)[C@]12C[C@@H](OCc3c(F)cccc3F)[C@](C)(C[C@@H]1O)O2 [1-41, (1R,2S,4S,5R)-5-((2,6-difluorobenzyl)oxy)-1-isopropyl-4-methyl-7-oxabicyclo[2,2,1]heptan-2-ol]
≥ 80%: inhibition at 75 g/ha (Digitaria ciliaris) | inhibition at 75 g/ha (Echinochloa crus-galli [1]) | pest or weed control at 1200 g/ha (Monochoria vaginalis [2]) | pest or weed control at 1200 g/ha (Scirpus juncoides [3]) | pest or weed control at 1200 g/ha [4] | inhibition at 75 g/ha [5] | inhibition at 1200 g/ha (Scirpus juncoides [6]) | inhibition at 1200 g/ha [7] | inhibition at 1200 g/ha (Monochoria vaginalis [8]) | inhibition at 1200 g/ha (Echinochloa crus-galli [9]) | inhibition at 75 g/ha (Scirpus juncoides [10])

CC(C)[C@]12C[C@@H](OCc3ccccc3F)[C@](C)(C[C@@H]1O)O2 [1-30, (1R,2S,4S,5R)-5-((2-fluorobenzyl)oxy)-1-isopropyl-4-methyl-7-oxabicyclo[2.2.1]heptan-2-ol]
≥ 80%: inhibition at 75 g/ha (Digitaria ciliaris) | inhibition at 75 g/ha (Echinochloa crus-galli [1]) | pest or weed control at 1200 g/ha (Monochoria vaginalis [2]) | pest or weed control at 1200 g/ha (Scirpus juncoides [3]) | pest or weed control at 1200 g/ha [4] | inhibition at 75 g/ha [5] | inhibition at 1200 g/ha (Scirpus juncoides [6]) | inhibition at 1200 g/ha [7] | inhibition at 1200 g/ha (Monochoria vaginalis [8]) | inhibition at 1200 g/ha (Echinochloa crus-galli [9]) | inhibition at 75 g/ha (Scirpus juncoides [10])

Cc1ccc(CO[C@@H]2C[C@]3(C(C)C)O[C@@]2(C)C[C@@H]3Br)cc1 [1-681, (1S,2R,4R,5S)-5-bromo-1-methyl-2-[(4-methylphenyl)methoxy]-4-isopropyl-7-oxabicyclo[2.2.1]heptane]
≥ 80%: inhibition at 75 g/ha (Digitaria ciliaris) | inhibition at 75 g/ha (Echinochloa crus-galli [1]) | pest or weed control at 1200 g/ha (Monochoria vaginalis [2]) | pest or weed control at 1200 g/ha (Scirpus juncoides [3]) | pest or weed control at 1200 g/ha [4] | inhibition at 75 g/ha [5] | inhibition at 1200 g/ha (Scirpus juncoides [6]) | inhibition at 1200 g/ha [7] | inhibition at 1200 g/ha (Monochoria vaginalis [8]) | inhibition at 1200 g/ha (Echinochloa crus-galli [9])

C=CCO[C@H]1C[C@]2(C)O[C@@]1(C(C)C)C[C@H]2OCc1ccccc1F [1-1602, (1S,2R,4R,5S)-2-[(2-fluorophenyl)methoxy]-1-methyl-4-isopropyl-5-prop-2-enoxy-7-oxabicyclo[2.2.1]heptane]
≥ 80%: inhibition at 75 g/ha (Digitaria ciliaris) | inhibition at 75 g/ha (Echinochloa crus-galli [1]) | pest or weed control at 1200 g/ha (Scirpus juncoides [3]) | pest or weed control at 1200 g/ha [4] | inhibition at 75 g/ha [5] | inhibition at 1200 g/ha (Scirpus juncoides [6]) | inhibition at 1200 g/ha [7] | inhibition at 1200 g/ha (Monochoria vaginalis [8]) | inhibition at 1200 g/ha (Echinochloa crus-galli [9]) | inhibition at 75 g/ha (Scirpus juncoides [10])

CC(C)[C@]12C[C@@H](OCc3ccccc3Cl)[C@](C)(CC1=O)O2 [2-11, (1R,4S,5R)-5-((2-chlorobenzyl)oxy)-1-isopropyl-4-methyl-7-oxabicyclo[2.2.1]heptan-2-one]
≥ 80%: inhibition at 75 g/ha (Digitaria ciliaris) | inhibition at 75 g/ha (Echinochloa crus-galli [1]) | pest or weed control at 1200 g/ha (Scirpus juncoides [3]) | pest or weed control at 1200 g/ha [4] | inhibition at 75 g/ha [5] | inhibition at 1200 g/ha (Scirpus juncoides [6]) | inhibition at 1200 g/ha [7] | inhibition at 1200 g/ha (Monochoria vaginalis [8]) | inhibition at 1200 g/ha (Echinochloa crus-galli [9]) | inhibition at 75 g/ha (Scirpus juncoides [10])

CC(C)[C@]12C[C@@H](OCc3ccccc3F)[C@](C)(C[C@@H]1Br)O2 [1-19, (1S,2R,4R,5S)-5-bromo-2-[(2-fluorophenyl)methoxy]-1-methyl-4-isopropyl-7-oxabicyclo[2.2.1]heptane]
≥ 80%: inhibition at 75 g/ha (Digitaria ciliaris) | inhibition at 75 g/ha (Echinochloa crus-galli [1]) | pest or weed control at 1200 g/ha (Monochoria vaginalis [2]) | pest or weed control at 1200 g/ha (Scirpus juncoides [3]) | pest or weed control at 1200 g/ha [4] | inhibition at 75 g/ha [5] | inhibition at 1200 g/ha (Scirpus juncoides [6]) | inhibition at 1200 g/ha [7] | inhibition at 1200 g/ha (Monochoria vaginalis [8]) | inhibition at 1200 g/ha (Echinochloa crus-galli [9]) | inhibition at 75 g/ha (Scirpus juncoides [10])
